Test results as given in the supplement of paper PMC10627819.

What was measured:
S. pneumoniae D39V [1] = experiment: fitness (endpoint OD595 vs no drug) (fraction); higher = more growth
Procedure, shortened: (§1)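 Volumes were 30 µl per well, or 55 µl for S. pneumoniae, in 384-well plates inoculated at OD595 0.01. Media were TSB, LB Lennox or CY at 37 °C, and OD595 was read every 30 min for 14 h with first-reading background subtraction. Fitness is the ratio of optical density at stationary-phase entry to the robust mean of no-drug controls. That ratio is capped at 1.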

S. aureus Newman [2] = experiment: as above
Procedure, shortened: as §1

B. subtilis 168 = experiment: Bliss interaction score (quartile over a dose matrix) (fitness difference); higher = more antagonism (negative = synergy)
Procedure, shortened: (§2)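 Each plate was normalised to the robust mean of its own no-drug wells, using OD595 at entry into stationary phase, with values capped at 1. This normalised growth is the fitness value. The Bliss score is the difference between observed and product-expected fitness, with single-drug fitness inferred from the combination data and quartiles taken over technical, biological and donor/recipient replicates.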

S. aureus DSM 20231 = experiment: as above
Procedure, shortened: as §2

S. pneumoniae D39V [3] = experiment: as above
Procedure, shortened: as §2

S. aureus Newman [4] = experiment: as above
Procedure, shortened: as §2
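Throughout, for Bliss interaction score (quartile over a dose matrix): first quartile when negative (synergy) and third quartile when positive (antagonism).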

CC1=C(C(=O)O)N2C(=O)[C@@H](NC(=O)[C@H](N)c3ccccc3)[C@H]2SC1 [Cephalexin] + CN[C@H](CC(C)C)C(=O)N[C@H]1C(=O)N[C@@H](CC(N)=O)C(=O)N[C@H]2C(=O)N[C@H]3C(=O)N[C@H](C(=O)N[C@H](C(=O)O)c4cc(O)cc(O)c4-c4cc3ccc4O)[C@H](O)c3ccc(c(Cl)c3)Oc3cc2cc(c3O[C@@H]2O[C@H](CO)[C@@H](O)[C@H](O)[C@H]2O[C@H]2C[C@](C)(N)[C@H](O)[C@H](C)O2)Oc2ccc(cc2Cl)[C@H]1O [Vancomycin]
fitness, S. pneumoniae D39V [1], one replicate
Settings | first compound 0.125 µg/mL | first compound 0.25 µg/mL | first compound 0.5 µg/mL
partner 0.125 µg/mL | 0.824 | 0.936 | ≥ 1
partner 0.25 µg/mL | 0.165 | 0.383 | 0.428
partner 0.5 µg/mL | 0.0735 | 0.0702 | 0.105

fitness
Settings | first compound 0.25 µg/mL | first compound 0.5 µg/mL | first compound 1 µg/mL | first compound 2 µg/mL | first compound 4 µg/mL
S. aureus Newman [2], partner 0.1875 µg/mL | ≥ 1 | 0.997 | ≥ 1 | – | –
S. aureus Newman [2], partner 0.375 µg/mL | 0.997 | ≥ 1 | ≥ 1 | – | –
S. aureus Newman [2], partner 0.75 µg/mL | ≥ 1 | ≥ 1 | ≥ 1 | – | –
S. pneumoniae D39V [1], partner 0.03125 µg/mL | – | – | – | 0.0634 | 0.0468
S. pneumoniae D39V [1], partner 0.0625 µg/mL | – | – | – | 0.0312 | 0.0227
S. pneumoniae D39V [1], partner 0.125 µg/mL | – | – | 0.282 | 0.0467 | 0.0467

Settings | Bliss interaction score
B. subtilis 168 | -0.0548
S. aureus DSM 20231 | 0.0385
S. aureus Newman [4] | 0.0402
S. pneumoniae D39V [3] | -0.207

CC1=C(C(=O)O)N2C(=O)[C@@H](NC(=O)[C@H](N)c3ccccc3)[C@H]2SC1 [Cephalexin] + Cn1nnc(-c2ccc(-c3ccc(N4C[C@H](CO)OC4=O)cc3F)cn2)n1 [Tedizolid]
fitness, S. pneumoniae D39V [1], one replicate
Settings | first compound 0.125 µg/mL | first compound 0.25 µg/mL | first compound 0.5 µg/mL
partner 0.125 µg/mL | 0.857 | 0.887 | 0.943
partner 0.25 µg/mL | 0.762 | 0.775 | 0.793
partner 0.5 µg/mL | 0.282 | 0.332 | 0.359

fitness
Settings | first compound 0.25 µg/mL | first compound 0.5 µg/mL | first compound 1 µg/mL | first compound 2 µg/mL | first compound 4 µg/mL
S. aureus Newman [2], partner 0.0625 µg/mL | 0.965 | 0.999 | 0.967 | – | –
S. aureus Newman [2], partner 0.125 µg/mL | 0.914 | 0.901 | 0.924 | – | –
S. pneumoniae D39V [1], partner 0.03125 µg/mL | – | – | 0.919 | 0.391 | 0.0118
S. pneumoniae D39V [1], partner 0.0625 µg/mL | – | – | 0.928 | 0.53 | 0.113
S. pneumoniae D39V [1], partner 0.125 µg/mL | – | – | 0.778 | 0.529 | 0.115

Settings | Bliss interaction score
B. subtilis 168 | -0.0471
S. aureus DSM 20231 | -0.121
S. aureus Newman [4] | 0.0857
S. pneumoniae D39V [3] | 0.304

CNC(C)C1CCC(N)C(OC2C(N)CC(N)C(OC3OCC(C)(O)C(NC)C3O)C2O)O1 (configuration not stated) [Gentamicin] + C/C(=C\C(=O)OCCCCCCCCC(=O)O)C[C@@H]1OC[C@H](C[C@@H]2O[C@H]2[C@@H](C)[C@H](C)O)[C@@H](O)[C@H]1O [Pseudomonic acid]
fitness, S. pneumoniae D39V [1], main component drawn
Settings | first compound 2 µg/mL | first compound 4 µg/mL | first compound 8 µg/mL
partner 0.03 µg/mL | 0.922 | 0.923 | 0.881
partner 0.06 µg/mL | 0.727 | 0.769 | 0.673
partner 0.12 µg/mL | 0.396 | 0.393 | 0.323

fitness, S. aureus Newman [2], one replicate, main component drawn
Settings | first compound 1 µg/mL | first compound 2 µg/mL | first compound 4 µg/mL
partner 0.0313 µg/mL | 0.0474 | 0.0502 | 0.0545
partner 0.0625 µg/mL | 0.0311 | 0.0417 | 0.0388
partner 0.125 µg/mL | 0.0416 | 0.0314 | 0.0572

main component drawn
Settings | Bliss interaction score
B. subtilis 168 | 0.0456
S. aureus DSM 20231 | 0.0111
S. aureus Newman [4] | 0.0245
S. pneumoniae D39V [3] | -0.134

CNC(C)C1CCC(N)C(OC2C(N)CC(N)C(OC3OCC(C)(O)C(NC)C3O)C2O)O1 (configuration not stated) [Gentamicin] + CN[C@H](CC(C)C)C(=O)N[C@H]1C(=O)N[C@@H](CC(N)=O)C(=O)N[C@H]2C(=O)N[C@H]3C(=O)N[C@H](C(=O)N[C@H](C(=O)O)c4cc(O)cc(O)c4-c4cc3ccc4O)[C@H](O)c3ccc(c(Cl)c3)Oc3cc2cc(c3O[C@@H]2O[C@H](CO)[C@@H](O)[C@H](O)[C@H]2O[C@H]2C[C@](C)(N)[C@H](O)[C@H](C)O2)Oc2ccc(cc2Cl)[C@H]1O [Vancomycin]
fitness, main component drawn
Settings | first compound 0.5 µg/mL | first compound 1 µg/mL | first compound 2 µg/mL | first compound 4 µg/mL | first compound 8 µg/mL
S. aureus Newman [2], partner 0.1875 µg/mL | 0.991 | 0.988 | – | – | –
S. aureus Newman [2], partner 0.375 µg/mL | 0.981 | 0.996 | ≥ 1 | – | –
S. aureus Newman [2], partner 0.75 µg/mL | 0.999 | ≥ 1 | ≥ 1 | – | –
S. pneumoniae D39V [1], partner 0.03125 µg/mL | – | – | 0.974 | ≥ 1 | 0.98
S. pneumoniae D39V [1], partner 0.0625 µg/mL | – | – | 0.949 | 0.977 | 0.952
S. pneumoniae D39V [1], partner 0.125 µg/mL | – | – | 0.891 | 0.922 | 0.925
S. pneumoniae D39V [1], partner 0.25 µg/mL | – | – | 0.0786 | 0.0692 | 0.0847
S. pneumoniae D39V [1], partner 0.5 µg/mL | – | – | 0.0666 | 0.052 | 0.0832

fitness, S. aureus Newman [2], one replicate, main component drawn
Settings | first compound 0.375 µg/mL | first compound 0.75 µg/mL | first compound 1.5 µg/mL
partner 0.1875 µg/mL | ≥ 1 | ≥ 1 | 0.261
partner 0.375 µg/mL | ≥ 1 | ≥ 1 | 0.0474
partner 0.75 µg/mL | ≥ 1 | ≥ 1 | 0.0659

main component drawn
Settings | Bliss interaction score
B. subtilis 168 | 0.0451
S. aureus DSM 20231 | 0.0984
S. aureus Newman [4] | 0.0347
S. pneumoniae D39V [3] | -0.0655

CNC(C)C1CCC(N)C(OC2C(N)CC(N)C(OC3OCC(C)(O)C(NC)C3O)C2O)O1 (configuration not stated) [Gentamicin] + Cn1nnc(-c2ccc(-c3ccc(N4C[C@H](CO)OC4=O)cc3F)cn2)n1 [Tedizolid]
fitness, main component drawn
Settings | partner 0.03125 µg/mL | partner 0.0625 µg/mL | partner 0.125 µg/mL | partner 0.25 µg/mL | partner 0.5 µg/mL
S. aureus Newman [2], first compound 0.375 µg/mL | – | 0.965 | 0.862 | 0.176 | –
S. aureus Newman [2], first compound 0.5 µg/mL | – | 0.938 | 0.934 | 0.605 | –
S. aureus Newman [2], first compound 0.75 µg/mL | – | 0.969 | 0.771 | 0.131 | –
S. aureus Newman [2], first compound 1 µg/mL | – | 0.949 | 0.907 | – | –
S. aureus Newman [2], first compound 1.5 µg/mL | – | – | – | 0.15 | –
S. aureus Newman [2], first compound 2 µg/mL | – | 0.979 | 0.905 | 0.702 | –
S. pneumoniae D39V [1], first compound 2 µg/mL | 0.933 | 0.964 | 0.687 | 0.259 | 0.104
S. pneumoniae D39V [1], first compound 4 µg/mL | 0.942 | 0.964 | – | 0.211 | 0.105
S. pneumoniae D39V [1], first compound 8 µg/mL | 0.933 | 0.954 | – | 0.242 | 0.0993

main component drawn
Settings | Bliss interaction score
B. subtilis 168 | 0.228
S. aureus DSM 20231 | 0.0633
S. aureus Newman [4] | 0.0667
S. pneumoniae D39V [3] | -0.112
